PubChem BioAssay AID1205 (EPA DSSTox, 2008)
Activity calls are given as the source filed them.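 The calls were made as follows: active = tumour findings in long-term animal cancer tests in more than one sex, species or organ; inactive = no tumour finding and more than one negative test.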 Where a SMILES comes first, the peptide text is derived from it.

Experiment: DSSTox (CPDBAS) Carcinogenic Potency Database Summary MultiCellCall Results
Conditions: animal carcinogenicity bioassays, multi-cell call summary
Method in brief: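 ActivityScore sums 50 for multispecies, 30 for multisex and 20 for multisite positivity. Based on the most positive experiment per sex-species across standardised chronic rodent and other animal cancer tests.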
With `Cc1c(N(C)C)c(=O)n(-c2ccccc2)n1C` the outcome was “inactive; multisex inactive”.
With `C/C=C(/C)C(=O)O[C@H]1CCN2CC=C(COC(=O)[C@](O)([C@H](C)OC)C(C)(C)O)[C@H]12` the outcome was “active; multisite active; multisex active”.
In the case of `Oc1c(Cl)cc(Cl)c(Cl)c1Cc1c(O)c(Cl)cc(Cl)c1Cl`, the outcome is reported as “inactive; multisex inactive; multispecies inactive”.
In the case of `NC(=O)c1ccncc1`, the outcome is reported as “inactive; multisex inactive”.
For `O=C(O)c1ccncc1`, the outcome was “inactive; multisex inactive; multispecies inactive”.
In the case of `COc1ccc([C@@H]2CC(=O)c3c(O)cc(O[C@@H]4O[C@H](CO[C@@H]5O[C@@H](C)[C@H](O)[C@@H](O)[C@H]5O)[C@@H](O)[C@H](O)[C@H]4O)cc3O2)cc1OC`, the outcome is reported as “inactive; multisex inactive”.
For `Clc1ccc(C(c2ccccc2Cl)C(Cl)Cl)cc1` (stereo not drawn), the outcome was “inactive; multisex inactive”.
With `COc1ccc(N)c(OC)c1` the outcome was “inactive; multisex inactive; multispecies inactive”.
With `O=Cc1ccco1` the outcome was “active; multisex active; multispecies active”.
With `O=[N+]([O-])c1ccc(-c2cscn2)o1` the outcome was “active; multisite active”.
For `CCOP(=S)(OCC)Oc1ccc([N+](=O)[O-])cc1`, the outcome was “inactive; multisex inactive; multispecies inactive”.
For `c1ccc(Nc2ccc3ccccc3c2)cc1`, the outcome was “inactive; multisex inactive; multispecies inactive”.
With `COC(C)(C)C` the outcome was “active; multisite active; multisex active; multispecies active”.
For `C[N+](C)(C)CCCl`, the outcome was “inactive; multisex inactive; multispecies inactive”.
In the case of `c1ccc(OCC2CO2)cc1` (stereo not drawn), the outcome is reported as “active; multisex active”.
With `COC(=O)[C@H](Cc1ccccc1)NC(=O)[C@@H](N)CC(=O)O` (H-Asp-Phe-OMe) the outcome was “inactive; multisex inactive”.
In the case of `N#CS`, the outcome is reported as “inactive; multisex inactive”.
In the case of `C[C@]12CC[C@H]3C(=CCc4cc(OS(=O)(=O)O)ccc43)[C@@H]1CCC2=O`, the outcome is reported as “inactive; multisex inactive”.
For `C=CCc1ccc2c(c1)OCO2`, the outcome was “active; multisex active; multispecies active”.
In the case of `CN[C@@H](C)[C@H](O)c1ccccc1`, the outcome is reported as “inactive; multisex inactive; multispecies inactive”.
For `CCN(C#N)N=O`, the outcome was “active; multisex active”.
With `NCCCC(N)(C(=O)O)C(F)F` (stereo not drawn) the outcome was “inactive; multisex inactive”.
For `S=C1NCCN1`, the outcome was “active; multisite active; multisex active; multispecies active”.
In the case of `c1ccc(Nc2ccc(Nc3ccccc3)cc2)cc1`, the outcome is reported as “inactive; multisex inactive; multispecies inactive”.
For `O=[N+]([O-])c1cc([N+](=O)[O-])c(Cl)c(Cl)c1Cl`, the outcome was “inactive; multisex inactive”.
In the case of `O=NN(c1ccccc1)c1ccccc1`, the outcome is reported as “active; multisex active”.
With `CNCCC(Oc1ccc(C(F)(F)F)cc1)c1ccccc1` (stereo not drawn) the outcome was “inactive; multisex inactive; multispecies inactive”.
With `FCCl` the outcome was “active; multisex active”.
In the case of `CCCOC(=O)C1c2cc3c(cc2CC(C)C1C(=O)OCCC)OCO3` (stereo not drawn), the outcome is reported as “inactive; multisex inactive”.
For `[O-][Cl+]O`, the outcome was “inactive; multisex inactive; multispecies inactive”.
With `S=C(SSSSSSC(=S)N1CCCCC1)N1CCCCC1` the outcome was “inactive; multisex inactive”.
In the case of `CC1(C)COC1=O`, the outcome is reported as “active; multisex active”.
For `CCOC(=O)CC(SP(=O)(OC)OC)C(=O)OCC` (stereo not drawn), the outcome was “inactive; multisex inactive; multispecies inactive”.
With `CCC[CH2][Sn]([CH2]CCC)([O]C(C)=O)[O]C(C)=O` the outcome was “inactive; multisex inactive; multispecies inactive”.
With `CC(Cl)CCl` (stereo not drawn) the outcome was “active; multisex active”.
For `C=CC(=O)O`, the outcome was “inactive; multisex inactive”.
In the case of `CN=[N+](C)[O-]`, the outcome is reported as “active; multisite active”.
With `C[C@H](CCC(=O)O)[C@H]1CC[C@H]2[C@@H]3CC[C@@H]4C[C@H](O)CC[C@]4(C)[C@H]3CC[C@]12C` the outcome was “inactive; multisex inactive; multispecies inactive”.
With `CC(C)(C)c1cc(C(C)(C)C)c(O)c(C(C)(C)C)c1` the outcome was “inactive; multisex inactive”.
With `Nc1nc(N)nc(-c2ccccc2)n1` the outcome was “inactive; multisex inactive; multispecies inactive”.
For `c1ccc2sc(SNC3CCCCC3)nc2c1`, the outcome was “inactive; multisex inactive”.
For `CC(C)NCC(O)COc1cccc2ccccc12` (stereo not drawn), the outcome was “inactive; multisex inactive; multispecies inactive”.
In the case of `O=C1C2CC=CCC2C(=O)N1SC(Cl)(Cl)Cl` (stereo not drawn), the outcome is reported as “active; multisite active; multisex active; multispecies active”.
In the case of `O=[N+]([O-])c1cccc2cccnc12`, the outcome is reported as “active; multisex active”.
With `Cc1cn([C@H]2C[C@H](N=[N+]=[N-])[C@@H](CO)O2)c(=O)[nH]c1=O` the outcome was “active; multispecies active”.
For `O=S(=O)(c1ccc(Cl)cc1)c1ccc(Cl)cc1`, the outcome was “inactive; multisex inactive; multispecies inactive”.
For `CS(=O)(=O)OCCCNCCCOS(C)(=O)=O`, the outcome was “inactive; multisex inactive; multispecies inactive”.
In the case of `C=CBr`, the outcome is reported as “active; multisite active; multisex active”.
